# What was measured:
# [1] = biological target: P. vivax dihydrofolate reductase (PvDHFR) (Plasmodium vivax, UniProt O02604); assay: spectrophotometric DHFR assay at […] nm (NADPH/DHF consumption), purified enzyme; format: biochemical
# [2] = biological target: T1, human dihydrofolate reductase (HsDHFR) (Homo sapiens, UniProt P00374); assay: as above; format: biochemical
# T1 construct: gene DHFR
# T1 sequence (P00374 1-187): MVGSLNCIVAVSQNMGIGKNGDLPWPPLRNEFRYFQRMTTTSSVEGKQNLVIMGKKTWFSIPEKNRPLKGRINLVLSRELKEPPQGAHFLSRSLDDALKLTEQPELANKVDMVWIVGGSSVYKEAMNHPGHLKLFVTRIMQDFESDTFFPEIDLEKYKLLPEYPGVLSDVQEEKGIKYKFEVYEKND
# Sequence of P. vivax dihydrofolate reductase (PvDHFR) (O02604 1-240): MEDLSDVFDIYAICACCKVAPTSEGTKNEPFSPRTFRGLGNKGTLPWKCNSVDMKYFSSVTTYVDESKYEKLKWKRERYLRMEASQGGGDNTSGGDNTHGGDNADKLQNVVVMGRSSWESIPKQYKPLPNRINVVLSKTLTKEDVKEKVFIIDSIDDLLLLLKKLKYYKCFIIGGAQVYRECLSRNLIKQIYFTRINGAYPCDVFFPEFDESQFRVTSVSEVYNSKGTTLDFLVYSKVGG
smiles,measurement,setting,value
Oc1cc(Cl)ccc1Oc1ccc(Cl)cc1Cl [triclosan],IC50,[1],775 ± 384 nM
same,IC50,[2],17.2 ± 4.9 µM

# — paper PMC5773535, “Plasmodium dihydrofolate reductase is a second enzyme target for the antimalarial action of triclosan” (Scientific Reports, 2018)
